Values quoted from earlier work, collected in patent US10071072B2, “Method for treating neurotrauma” (N.V. Nutricia, priority 2011, dated 2018).

Test system: neurotrauma
Details: in vivo supply; King et al. J. Neurosci.

Compound: CC/C=C\C/C=C\C/C=C\CCCCCCCC(=O)O [α-linolenic acid]
- neuroprotection in neurotrauma: neuroprotective
